{"source": "patent US20090326003A1", "about": "“PYRAZOLO (3, 4-B) PYRIDINE DERIVATIVES AS PDE4 INHIBITORS” (priority 2006, published 2009)", "origin": "cited, not measured here", "key": {"[1]": {"test_system": "atopic dermatitis patients", "conditions": "0.5% ointment, twice daily topical application; cited from earlier work"}, "COPD patients": {"test_system": "COPD patients", "conditions": "cited from earlier work"}, "[2]": {"test_system": "atopic dermatitis patients", "conditions": "0.15% cream versus vehicle and hydrocortisone 17-butyrate (0.1%) cream; cited from earlier work"}, "[3]": {"test_system": "humans with histories of allergic rhinitis", "conditions": "orally 500 ug once daily for 9 days; intranasal allergen provocation (pollen extracts); cited from earlier work"}}}
{"smiles": "COc1ccc(C2CNC(=O)NC2)cc1O[C@H]1C[C@@H]2CC[C@H]1C2", "note": "[CP80,633]", "values": [{"measurement": "inflammatory parameters in atopic dermatitis patients", "setting": "[1]", "result": "reductions of inflammatory parameters"}]}
{"smiles": "COc1ccc([C@]2(C#N)CC[C@@H](C(=O)O)CC2)cc1OC1CCCC1", "note": "[cilomilast]", "values": [{"measurement": "forced expiratory volume in 1 s (FEV1) in COPD patients", "setting": "COPD patients; 15 mg orally twice daily", "result": "appears to improve"}, {"measurement": "antiinflammatory effects in COPD patients", "setting": "COPD patients; COPD patients", "result": "appears to have antiinflammatory effects"}]}
{"smiles": "Nc1nc2c([nH]1)c(=O)n(CC1CC1)c(=O)n2CC1CC1", "note": "[cipamfylline]", "values": [{"measurement": "effectiveness in the treatment of atopic dermatitis patients", "setting": "[2]", "result": "significantly more effective than vehicle, but significantly less effective than hydrocortisone 17-butyrate (0.1%) cream"}]}
{"smiles": "O=C(Nc1c(Cl)cncc1Cl)c1ccc(OC(F)F)c(OCC2CC2)c1", "note": "[roflumilast]", "values": [{"measurement": "FEV1 in COPD patients", "setting": "COPD patients; COPD patients, dose not stated", "result": "small improvements"}, {"measurement": "rhinal airflow during the treatment period (compared to placebo)", "setting": "[3]", "result": "effective in improving rhinal airflow"}]}
